Source: ChEMBL document CHEMBL5674860, “Optimized Dual-Glo Assay to identify co-culture-induced drug vulnerabilities in 3D CRC models” (2024)

Key:
Assay type in all cases: functional, Homo sapiens
Set-up in all cases: dose or concentration left out as unconfirmed
[1] = system: Colon cancer organoid; test: Optimized Dual-Glo assay to identify co-culture induced drug vulnerabilities using donated chemical probes and chemogenomics kinase set in O06 CRC organoid and F06 CAF mono and co-culture. […] Cell viability is reported both mono and co-culture models.
[2] = system: Colon cancer organoid; test: Optimized Dual-Glo assay to identify co-culture induced drug vulnerabilities using donated chemical probes and chemogenomics kinase set in O14 CRC organoid and F14 CAF mono and co-culture. […] Cell viability is reported both mono and co-culture models.
[3] = system: Colon cancer organoid; test: Optimized Dual-Glo assay to identify co-culture induced drug vulnerabilities using donated chemical probes and chemogenomics kinase set in O20 CRC organoid and F20 CAF mono and co-culture. […] Cell viability is reported both mono and co-culture models.
[4] = Culture type Co-Culture, Transduced with Lucferase2-P2A-EGFP lentivirus
[5] = Culture type Co-Culture, Transduced with Renilla-dsRed lentivirus
[6] = Culture type Mono-Culture, Transduced with Lucferase2-P2A-EGFP lentivirus
[7] = Culture type Mono-Culture, Transduced with Renilla-dsRed lentivirus

Row | SMILES | Cell Viability [1, 4] [%] | Cell Viability [1, 5] [%] | Cell Viability [1, 6] [%] | Cell Viability [1, 7] [%] | Cell Viability [2, 4] [%] | Cell Viability [2, 5] [%] | Cell Viability [2, 6] [%] | Cell Viability [2, 7] [%] | Cell Viability [3, 4] [%] | Cell Viability [3, 5] [%] | Cell Viability [3, 6] [%] | Cell Viability [3, 7] [%]
1 | CC1=C(C)C(=O)C(C(C)(C)CC(=O)N(CCCCSC[C@H]2O[C@@H](n3cnc4c(N)ncnc43)[C@H](O)[C@@H]2O)Cc2cccc(-c3ccc(Cl)cc3)c2)=C(C)C1=O | 117.447 | 138.552 | 64.6918 | 115.82 | 78.0162 | 155.416 | 78.4613 | 102.407 | 99.381 | 114.813 | 107.414 | 99.5191
2 | CCc1cc(Nc2nccc(-c3c(-c4ccc(OC)c(C(=O)Nc5c(F)cccc5F)c4)nc4ccccn34)n2)c(OC)cc1N1CCC(N2CCN(S(C)(=O)=O)CC2)CC1 | 86.7992 | 78.7013 | 91.9397 | 111.569 | 94.7667 | 100.13 | 92.2589 | 95.6551 | 116.043 | 82.2783 | 81.9449 | 100.572
3 | O=C(NCCCN1CCOC1=O)c1cnc(NCc2cc(Br)ccc2Br)nc1NC1CCCC1 | 110.394 | 154.807 | 109.931 | 185.402 | 74.8932 | 125.798 | 157.235 | 136.857 | 103.947 | 94.0994 | 97.7699 | 110.221
4 | Cc1ccccc1Oc1cc(-n2c(=O)cc(C(F)(F)F)[nH]c2=O)c2ccccc2c1Cl [BAY-069] | 128.819 | 153.89 | 114.766 | 111.149 | 114.551 | 130.948 | 135.188 | 102.99 | 83.88 | 119.466 | 87.9837 | 109.318
5 | CCC(=O)N1CCN(c2ccc(-n3c(=O)ccc4cnc5ccc(-c6cnc7ccccc7c6)cc5c43)cc2C(F)(F)F)CC1 [TORIN1] | 4.705 | 40.1911 | 4.406 | 17.8443 | 6.678 | 21.6908 | 9.433 | 15.03 | 7.384 | 44.8651 | 4.069 | 24.9993
6 | COCCN1CCC(c2cc(CN(C)C(=O)c3cccc(Oc4ccccc4)c3)ccn2)CC1 | 91.2389 | 131.922 | 95.8918 | 124.805 | 94.0691 | 112.751 | 102.019 | 112.74 | 94.1045 | 115.605 | 130.999 | 103.56
7 | COc1ccc(Cn2ccc3ccc(C(=O)NO)cc32)cc1 | 111.578 | 129.424 | 126.919 | 118.855 | 71.3405 | 118.85 | 119.497 | 102.466 | 176.611 | 111.53 | 111.23 | 102.771
8 | C[C@@H](Oc1cc(-n2cnc3ccc(CN4CCN(C)CC4)cc32)sc1C(N)=O)c1ccccc1C(F)(F)F [GSK-461364] | 8.2073 | 127.3 | 6.274 | 91.647 | 37.954 | 173.445 | 46.1468 | 90.9348 | 36.0345 | 141.481 | 13.8424 | 71.1921
9 | O=C(NOCC1CC1)c1ccc(F)c(F)c1Nc1ccc(I)cc1Cl [CI-1040] | 38.2974 | 73.8424 | 7.023 | 67.7326 | 16.7737 | 86.2158 | 10.461 | 42.9063 | 43.8229 | 195.336 | 27.7103 | 59.0843
10 | CO[C@@H](C)c1c(Nc2ccc([C@H](N(C)C(=O)C3CCS(=O)(=O)CC3)C(F)(F)F)cc2)cnc2cc(Cl)nn12 [NVS-MALT1] | 54.3511 | 83.5282 | 80.0936 | 98.6896 | 62.6088 | 105.477 | 102.315 | 101.932 | 87.8486 | 98.697 | 70.7423 | 82.2292
11 | CN(C)[C@H]1CCN(c2cc(-c3ccccc3)nc3ccnn23)C1 [(S)-ZINC-3573] | 87.7689 | 121.05 | 76.4871 | 118.538 | 106.455 | 83.2705 | 93.2108 | 87.5469 | 92.3796 | 112.128 | 114.664 | 102.75
12 | O=C(O)[C@@H]1[C@@H](Cn2nnc3ccccc3c2=O)CC[C@H]1C(=O)c1ccc(OCCC2CCOCC2)cc1 [BAY-694] | 117.739 | 144.793 | 97.4704 | 83.1858 | 106.85 | 112.908 | 118.458 | 100.512 | 92.0939 | 91.7477 | 167.035 | 108.76
13 | Cn1cc(-c2ccc3occ(-c4ccccc4-c4ccccc4)c3n2)cn1 | 137.24 | 150.558 | 120.153 | 121.662 | 101.217 | 93.8283 | 119.561 | 96.0811 | 88.7548 | 89.3741 | 123.78 | 115.172
14 | CCc1cc2cc(NS(=O)(=O)c3ccc(C#N)cc3)ccc2n(CC)c1=O | 88.2132 | 102.933 | 126.115 | 101.813 | 89.9895 | 94.6782 | 98.1459 | 101.615 | 195.321 | 99.0217 | 112.066 | 92.4545
15 | CN1CCN(c2ccc(OC(F)(F)F)c(Nc3ncc4c(n3)-c3c(c(C(N)=O)nn3CCO)CC4)c2)CC1 [ONVANSERTIB] | 2.834 | 160.245 | 4.275 | 93.5315 | 3.512 | 162.986 | 6.811 | 81.4434 | 2 | 184.086 | 2.415 | 100.341
16 | CCOC(=O)c1c(/C(C#N)=C\N)c2ccc(Cl)c(Cl)c2n1C | 122.99 | 97.4073 | 58.62 | 82.6208 | 135.947 | 65.0868 | 144.997 | 76.1592 | 92.1376 | 87.4636 | 163.638 | 89.5418
17 | CN(C)c1ncnc(-c2ccc3nc(Nc4cc(CN5CCN(C(=O)CC(F)(F)F)CC5)ccn4)[nH]c3c2)c1Cl [BAY-440] | 92.9994 | 174.385 | 85.2405 | 88.7418 | 103.771 | 112.238 | 114.79 | 113.849 | 123.006 | 109.622 | 117.784 | 126.413
18 | Cc1ccc2nc(CNCCCOc3ccccc3)cc(O)c2c1 [UCSF924] | 107.729 | 156.395 | 110.04 | 105.774 | 83.703 | 116.782 | 86.6693 | 107.391 | 114.798 | 125.381 | 97.5529 | 90.0539
